Here are results for 1 compound from US12275731B2, “Azaindole inhibitors of wild-type and mutant forms of LRRK2” (DANA-FARBER CANCER INSTITUTE, INC., priority 2018, dated 2025).

Each structure is given as a SMILES string.

One experiment concerns the target T1, LRRK2 WT enzyme (Homo sapiens, UniProt Q5S007).
T1 construct: purchased Thermo Fisher Scientific PR8604B
The experiment can be described thus: LRRK2 wild type kinase inhibition assay (ADP-Glo). The class given is biochemical. The following applies: Table 2, class symbols; read-out: Enzyme activity against LRRK2 WT (IC50). The procedure:
(§1) IC50 experiments were performed for inventive compounds. An exemplary kit to perform this assay includes the Adapta™ Screening Protocol and Assay Conditions by Invitrogen™ (Fisher Scientific™, Catalog No. PV5099).
(§2) All LRRK2 kinase inhibition assays were conducted by using Promega ADP-Glo™ Kinase assay systems (Catalog number; V4475). Inhibitors were tested with 12 concentrations over a 5-fold serial dilution series (50 μM, 10 μM, 2 μM, 400 nM, 80 nM, 16 nM, 3.2 nM, […]) and PF06447475 as positive control. For the LRRK2 wild type (WT) enzyme assay, each inhibitor was mixed with 0.2 μg/μL of substrate (LRRKtide, SignalChem, Richmond, BC, Canada), […] (Invitrogen™, Carlsbad, CA), 24 ng of LRRK2 WT enzyme (Thermo Fisher Scientific, PR8604B) in 384-well plate. For LRRK G2019S, each compound was mixed with 0.2 μg/μL of substrate, […], 16 ng of LRRK2 G2019S enzyme (SignalChem, L10-12GG). All samples were diluted with kinase reaction buffer (40 mmol/L TrisHCl, 10 mmol/L MgCl2, and 0.1 μg/μL BSA (bovine serum albumin)). After 2 hours at 25° C., ADP-Glo™ (Promega, Madison, WI) reagent was added and the samples were incubated at rt for 40 min. Finally, Kinase Detection Reagent was added and the resulting mixtures were allowed to react at rt for 10 min. Luminescence signals were detected using Synergy™ Neo2 microplate reader (Bio-Tek). Compound inhibition curve was fitted using Graphpad Prism 8.0 software.
A general note: ADP-Glo first removes unused ATP, then detects ADP through luciferase.

In another experiment the target is LRRK2(G2019S) (Homo sapiens, UniProt Q5S007, G2019S). In words: LRRK2 G2019S kinase inhibition assay (ADP-Glo). The class given is biochemical. Also noted: purchased SignalChem L10-12GG. To be noted: Table 2, class symbols; read-out: Enzyme activity against LRRK2 G2019S (IC50). How it is done: as §1, §2
Sequence of LRRK2(G2019S) (Q5S007 970-2527 G2019S limits assumed): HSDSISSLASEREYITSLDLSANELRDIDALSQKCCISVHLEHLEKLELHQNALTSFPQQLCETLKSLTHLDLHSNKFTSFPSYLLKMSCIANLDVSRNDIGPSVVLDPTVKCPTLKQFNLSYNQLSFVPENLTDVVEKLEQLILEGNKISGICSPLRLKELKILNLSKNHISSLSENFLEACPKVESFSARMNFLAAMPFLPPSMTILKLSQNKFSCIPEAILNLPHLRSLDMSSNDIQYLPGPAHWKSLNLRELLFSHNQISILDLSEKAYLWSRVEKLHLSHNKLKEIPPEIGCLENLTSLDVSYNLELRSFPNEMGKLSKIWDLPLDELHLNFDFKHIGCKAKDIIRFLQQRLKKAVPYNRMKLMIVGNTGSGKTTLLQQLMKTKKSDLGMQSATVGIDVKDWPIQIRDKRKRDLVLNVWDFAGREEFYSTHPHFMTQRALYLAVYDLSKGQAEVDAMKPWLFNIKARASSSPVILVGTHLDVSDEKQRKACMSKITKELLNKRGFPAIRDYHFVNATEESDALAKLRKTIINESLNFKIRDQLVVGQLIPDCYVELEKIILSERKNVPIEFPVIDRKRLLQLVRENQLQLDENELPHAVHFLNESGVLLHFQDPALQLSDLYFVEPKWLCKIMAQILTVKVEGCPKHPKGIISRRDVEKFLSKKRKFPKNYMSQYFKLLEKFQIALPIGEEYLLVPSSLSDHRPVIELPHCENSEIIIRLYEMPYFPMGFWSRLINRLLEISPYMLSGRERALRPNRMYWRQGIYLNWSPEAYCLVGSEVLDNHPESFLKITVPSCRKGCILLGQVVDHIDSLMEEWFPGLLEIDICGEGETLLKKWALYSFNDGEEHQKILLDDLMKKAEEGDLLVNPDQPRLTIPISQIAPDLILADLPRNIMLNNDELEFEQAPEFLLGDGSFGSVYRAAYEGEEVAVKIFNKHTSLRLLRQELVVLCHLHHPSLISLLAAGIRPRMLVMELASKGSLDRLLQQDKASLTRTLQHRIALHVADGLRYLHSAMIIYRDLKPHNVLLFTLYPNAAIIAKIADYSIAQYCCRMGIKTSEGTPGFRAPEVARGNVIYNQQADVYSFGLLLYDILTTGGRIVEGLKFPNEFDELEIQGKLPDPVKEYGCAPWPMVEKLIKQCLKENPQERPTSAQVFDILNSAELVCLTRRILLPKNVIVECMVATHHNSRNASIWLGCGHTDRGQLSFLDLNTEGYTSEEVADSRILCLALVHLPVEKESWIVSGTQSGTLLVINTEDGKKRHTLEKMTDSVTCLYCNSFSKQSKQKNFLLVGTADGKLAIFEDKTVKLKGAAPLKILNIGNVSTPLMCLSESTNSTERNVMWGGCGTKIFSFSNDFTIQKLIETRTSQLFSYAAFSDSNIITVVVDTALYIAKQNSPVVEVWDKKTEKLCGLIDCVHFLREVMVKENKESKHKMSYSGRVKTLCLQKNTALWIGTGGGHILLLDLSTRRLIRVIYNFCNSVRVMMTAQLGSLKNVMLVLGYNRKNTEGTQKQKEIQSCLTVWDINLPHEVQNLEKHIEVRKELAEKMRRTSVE

T1 sequence (Q5S007 970-2527 limits assumed): as the sequence (Q5S007 970-2527 G2019S limits assumed) above, with S1050G counted along it

Broadly, the IC50 is the concentration that gives 50% inhibition. For `O=C(c1ccc(-c2cnc3[nH]cc(Cl)c3c2NC2CC2)cc1)N1CCC(N2CCOCC2)CC1` [Compound 99, (4-(3-chloro-4-(cyclopropylamino)-1H-pyrrolo[2,3-b]pyridin-5-yl)phenyl)(4-morpholinopiperidin-1-yl)methanone], the values for the IC50 at LRRK2 WT enzyme and at LRRK2(G2019S) were 0.01 to 0.1 µM and greater than 0.1 µM, respectively.
